{
  "source": "paper PMC3790770",
  "about": "(PLoS ONE, 2013)",
  "biological_target": "T1, maltose binding protein (MBP) (Escherichia coli, UniProt P0AEX9)",
  "T1 construct": "resulting in an ampicillin-resistant plasmid that expresses cytoplasmic, full-length MBP; made in house",
  "test": "Titration monitored by tryptophan fluorescence peak wavelength",
  "settings": "sucrose up to ∼[…] without maltose and ∼0.9 M with maltose, 37 °C, pH 7.2",
  "procedure": "Experiments were performed on a Cary 300 Fluorimeter using 200 nM MBP in 100 mM sodium phosphate buffer (pH 7.2) at 37 °C. […] Crowder titrations were conducted with multiple samples, as addition of crowding agent to concentrations reaching 300 g/L was not feasible in the same sample without large volume and MBP concentration changes.\nData were analyzed using two different models: a two-state binding model (Figure 2A), and a three-state competitive binding model (Scheme 1).\nNow, [P] represented the sum of the two ligand-free species, i.e., the free protein P and the protein-crowder complex.",
  "data": [
    {"smiles": "OC[C@H]1O[C@@](CO)(O[C@H]2O[C@H](CO)[C@@H](O)[C@H](O)[C@H]2O)[C@@H](O)[C@@H]1O", "note": "[sucrose]", "values": [
      {"measurement": "binding to MBP (sucrose titration)", "value": "no apparent 1∶1 binding to MBP"}
    ]}
  ]
}
